Patent publication US20230256139A1, “IMPLANT SURFACES FOR PAIN CONTROL” (The General Hospital Corporation, priority 2016, published 2023)
Several values for one entry are separate records, joined by “and”; a condition that tells them apart may be missing. Equal values may be shown once. Read-outs that look alike come from different tables or passages of the source.

Tests used:
[1] = for amount of lidocaine eluted: cubes doped 640 min at 100° C.
Source text: The cubes were microtomed perpendicular to a surface plane in the middle of the said surface and the FTIR spectra of the thin sections prepared as described above were obtained as a function of depth from the surface towards the bulk.

[2] = Elution of lidocaine-blended UHMWPE cubes in 40° C. DI water, FTIR lidocaine index profile; type: physicochemical; settings: 0.25 wt % and 0.50 wt % lidocaine blends, up to 6 weeks
Experimental: These cubes were then immersed in 40° C. DI water. Groups of n=3 cubes per each wt. % were removed from the DI water and analyzed via FTIR at the following time points: 0 weeks (Control), 1 week, 2 weeks, 4 weeks, and 6 weeks.

[3] = CISM 1 cm cubes, 120° C.
[4] = cited from earlier work

2-(Dimethylamino)-N-(2,6-Dimethylphenyl)acetamide [lidocaine]
lidocaine eluted, percent ([1]; 40° C. DI H2O, 1 day): 13% | amount of lidocaine eluted ([1]; 40° C. DI H2O, 1 day): 1.4 ± 0.1 mg | lidocaine eluted, percent ([1]; 40° C. DI H2O, 2 days): 20% | amount of lidocaine eluted ([1]; 40° C. DI H2O, 2 days): 2.2 ± 0.1 mg | lidocaine eluted, percent ([1]; 40° C. DI H2O, 7 days): 34% | amount of lidocaine eluted ([1]; 40° C. DI H2O, 7 days): 3.6 ± 0.1 mg | lidocaine eluted, percent ([1]; 40° C. DI H2O, 14 days): 45% | amount of lidocaine eluted ([1]; 40° C. DI H2O, 14 days): 4.8 ± 0.1 mg | lidocaine eluted, percent ([1]; 40° C. DI H2O, 28 days): 59% | amount of lidocaine eluted ([1]; 40° C. DI H2O, 28 days): 6.3 ± 0.2 mg | lidocaine eluted, percent ([1]; 40° C. DI H2O, 56 days): 70% | amount of lidocaine eluted ([1]; 40° C. DI H2O, 56 days): 7.5 ± 0.1 mg | lidocaine eluted, percent ([1]; 100° C. DI H2O, 0.6 hours): 19% | amount of lidocaine eluted ([1]; 100° C. DI H2O, 0.6 hours): 2.0 ± 0.0 mg | lidocaine eluted, percent ([1]; 100° C. DI H2O, 2.6 hours): 38% | amount of lidocaine eluted ([1]; 100° C. DI H2O, 2.6 hours): 4.1 ± 0.1 mg | lidocaine eluted, percent ([1]; 100° C. DI H2O, 5.3 hours): 49% | amount of lidocaine eluted ([1]; 100° C. DI H2O, 5.3 hours): 5.2 ± 0.0 mg | lidocaine eluted, percent ([1]; 100° C. DI H2O, 12 hours): 70% | amount of lidocaine eluted ([1]; 100° C. DI H2O, 12 hours): 7.3 ± 0.0 mg | lidocaine eluted, percent ([1]; 100° C. DI H2O, 24 hours): 79% | amount of lidocaine eluted ([1]; 100° C. DI H2O, 24 hours): 8.6 ± 0.2 mg | lidocaine eluted, percent ([1]; 100° C. DI H2O, 48 hours): 85% | amount of lidocaine eluted ([1]; 100° C. DI H2O, 48 hours): 9.0 ± 0.1 mg | surface concentration of lidocaine in UHMWPE with increasing elution time [2]: decrease | amount of lidocaine absorbed ([3]; doping time 1 hour): 10.6 ± 0.3 mg | amount of lidocaine absorbed ([3]; doping time 2 hours): 16.8 ± 0.1 mg | amount of lidocaine absorbed ([3]; doping time 6 hours): 30.8 ± 0.2 mg and ~31 mg | amount of lidocaine absorbed ([3]; doping time 12 hours): 40.3 ± 0.2 mg | amount of lidocaine absorbed ([3]; doping time 24 hours): 52.1 ± 0.9 mg | amount of lidocaine absorbed ([3]; doping time […]): 3.0 ± 0.1 mg

CCCCN1CCCCC1C(=O)Nc1c(C)cccc1C.Cl (stereo not shown) [bupivacaine hydrochloride, 1-Butyl-N-(2,6-dimethylphenyl)-2-piperidinecarboxamide hydrochloride]
solubility in cold water [4]: soluble | solubility in diethyl ether [4]: partially soluble | solubility in methanol [4]: easily soluble
